Data: ChEMBL document CHEMBL1201862, “PubChem BioAssay data set” (2004)
Active and inactive are the calls of the source.

What was measured:
ORF 73 = ORF 73 (Human herpesvirus 8, UniProt O40947); test: inhibitors of C-LANA binding to LBS DNA, dose response, biochemical, fluorescence polarization, cherry-picked samples (AID 504725); parameters: species or system Human gammaherpesvirus 8;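 further: fluorescence polarization of a labeled DNA duplex reporting LANA DNA binding; potency is for inhibitors that block LANA binding to the DNA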
Chain of ORF 73 (O40947 whole entry): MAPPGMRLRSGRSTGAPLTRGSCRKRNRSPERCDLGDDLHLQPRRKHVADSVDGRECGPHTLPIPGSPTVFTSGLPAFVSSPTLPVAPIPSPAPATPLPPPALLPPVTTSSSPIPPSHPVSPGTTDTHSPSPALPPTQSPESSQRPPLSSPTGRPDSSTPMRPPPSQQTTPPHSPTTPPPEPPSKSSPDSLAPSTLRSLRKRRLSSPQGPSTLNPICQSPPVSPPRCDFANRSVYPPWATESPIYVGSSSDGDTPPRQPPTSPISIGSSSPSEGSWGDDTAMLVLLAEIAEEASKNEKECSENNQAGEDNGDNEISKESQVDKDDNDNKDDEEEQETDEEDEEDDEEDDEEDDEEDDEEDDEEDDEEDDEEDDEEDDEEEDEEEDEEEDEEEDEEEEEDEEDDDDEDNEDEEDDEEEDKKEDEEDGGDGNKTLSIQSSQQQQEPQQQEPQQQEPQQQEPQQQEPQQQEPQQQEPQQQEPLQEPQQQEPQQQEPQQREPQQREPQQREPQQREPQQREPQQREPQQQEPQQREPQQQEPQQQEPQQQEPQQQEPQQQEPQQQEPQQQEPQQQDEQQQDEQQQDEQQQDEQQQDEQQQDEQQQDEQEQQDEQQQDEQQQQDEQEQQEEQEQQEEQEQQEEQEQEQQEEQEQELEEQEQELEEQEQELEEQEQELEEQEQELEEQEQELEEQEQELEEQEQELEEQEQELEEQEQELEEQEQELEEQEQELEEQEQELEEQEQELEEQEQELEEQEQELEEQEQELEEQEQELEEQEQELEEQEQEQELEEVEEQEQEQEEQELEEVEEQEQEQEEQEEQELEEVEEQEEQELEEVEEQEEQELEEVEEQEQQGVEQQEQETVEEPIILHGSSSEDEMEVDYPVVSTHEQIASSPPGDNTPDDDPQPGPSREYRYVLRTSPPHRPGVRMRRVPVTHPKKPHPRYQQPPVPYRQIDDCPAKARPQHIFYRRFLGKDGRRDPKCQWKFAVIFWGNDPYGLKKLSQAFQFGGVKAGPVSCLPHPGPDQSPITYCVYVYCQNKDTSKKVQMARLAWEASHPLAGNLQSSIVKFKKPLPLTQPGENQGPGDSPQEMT

Keap1/Nrf2 = Keap1/Nrf2 (Homo sapiens, UniProt Q14145); test: Keap1-Nrf2 protein-protein interaction inhibitors, dose response, biochemical, fluorescence polarization, cherry-picked samples (AID 588683)
Chain of Keap1/Nrf2 (Q16236 whole entry): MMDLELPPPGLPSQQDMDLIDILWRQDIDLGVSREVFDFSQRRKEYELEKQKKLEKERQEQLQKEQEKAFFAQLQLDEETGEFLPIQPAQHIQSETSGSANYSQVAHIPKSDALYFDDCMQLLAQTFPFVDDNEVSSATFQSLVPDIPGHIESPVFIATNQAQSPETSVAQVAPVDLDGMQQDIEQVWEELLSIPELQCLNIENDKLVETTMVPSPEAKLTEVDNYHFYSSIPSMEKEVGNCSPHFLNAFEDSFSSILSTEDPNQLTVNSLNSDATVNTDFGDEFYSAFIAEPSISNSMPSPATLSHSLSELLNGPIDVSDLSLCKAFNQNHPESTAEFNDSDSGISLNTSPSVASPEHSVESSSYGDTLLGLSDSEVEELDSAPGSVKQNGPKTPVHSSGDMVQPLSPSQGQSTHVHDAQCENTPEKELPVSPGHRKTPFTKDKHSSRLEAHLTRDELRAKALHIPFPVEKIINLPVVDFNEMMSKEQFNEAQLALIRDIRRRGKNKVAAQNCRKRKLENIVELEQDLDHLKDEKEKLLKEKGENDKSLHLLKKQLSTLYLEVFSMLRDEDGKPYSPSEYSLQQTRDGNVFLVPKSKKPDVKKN
Chain of Keap1/Nrf2 (Q14145 whole entry): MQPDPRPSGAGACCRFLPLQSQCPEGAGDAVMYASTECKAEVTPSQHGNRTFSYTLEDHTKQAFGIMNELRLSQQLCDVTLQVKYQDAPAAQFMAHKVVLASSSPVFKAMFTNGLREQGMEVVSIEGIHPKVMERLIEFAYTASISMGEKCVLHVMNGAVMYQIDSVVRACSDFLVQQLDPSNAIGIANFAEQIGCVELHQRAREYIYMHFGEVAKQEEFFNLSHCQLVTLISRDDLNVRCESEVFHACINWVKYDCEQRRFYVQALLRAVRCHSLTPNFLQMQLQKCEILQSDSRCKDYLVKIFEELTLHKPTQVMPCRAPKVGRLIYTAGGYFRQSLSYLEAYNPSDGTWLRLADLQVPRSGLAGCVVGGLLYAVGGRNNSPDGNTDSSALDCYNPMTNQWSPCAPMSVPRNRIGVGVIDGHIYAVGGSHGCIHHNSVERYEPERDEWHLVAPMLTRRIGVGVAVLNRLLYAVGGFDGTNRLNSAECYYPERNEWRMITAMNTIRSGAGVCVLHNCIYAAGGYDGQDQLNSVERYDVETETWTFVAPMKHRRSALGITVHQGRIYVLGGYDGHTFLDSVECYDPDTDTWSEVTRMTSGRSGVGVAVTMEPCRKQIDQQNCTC

[1] = fluorescence interference artefacts, compound only, dose response, artefact control for cardiac thin filament activator project, biochemical, no RTF in test wells (AID 504697)
Troponin, cardiac muscle = Troponin, cardiac muscle (Homo sapiens, UniProt P19429+P45379+P63316); test: Fluorescence-based biochemical high throughput dose response assay for activators of the calcium sensitivity of cardiac Regulated Thin Filaments (RTF). [Related pubchem assays (depositor defined):AID493008, AID493018, AID504382, AID504383]; assay type: protein-complex assay
Salmon testes DNA = test: DNA intercalators displacing acridine orange, dose response, artefact control for KSHV LANA DNA-binding inhibitor project, biochemical, fluorescence polarization, cherry-picked samples, set 2 (AID 504727); parameters: species or system Salmonidae
[2] = biological target: Sphingosine 1-phosphate receptor 4 (Homo sapiens, UniProt O95977); test: Late-stage fluorescence dose response cell-based assay to identify agonists of the Sphingosine 1-Phosphate Receptor 4 (S1P4): purchased compounds EC50. [Related pubchem assays (depositor defined):AID1509, AID1523, AID1563, AID1686, AID1701, AID1801]; assay type: functional
Chain of Sphingosine 1-phosphate receptor 4 (O95977 whole entry): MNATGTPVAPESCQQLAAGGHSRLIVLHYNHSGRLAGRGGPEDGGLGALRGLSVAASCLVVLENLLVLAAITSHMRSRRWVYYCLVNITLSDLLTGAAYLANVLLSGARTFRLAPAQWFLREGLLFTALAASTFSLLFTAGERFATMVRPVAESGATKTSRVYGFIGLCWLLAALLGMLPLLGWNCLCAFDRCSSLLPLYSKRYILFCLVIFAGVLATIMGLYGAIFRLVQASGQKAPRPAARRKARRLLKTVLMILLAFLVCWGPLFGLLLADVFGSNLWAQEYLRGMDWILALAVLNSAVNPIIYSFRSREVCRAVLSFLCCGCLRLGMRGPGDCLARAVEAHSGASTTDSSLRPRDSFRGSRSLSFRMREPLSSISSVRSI

Cannabinoid receptor 1 [3] = biological target: T1, Cannabinoid receptor 1 (Homo sapiens, UniProt P21554); test: SAR analysis of agonists of the Cannabinoid Receptor 1 using an Image-Based Assay - Set 3. [Related pubchem assays (depositor defined):AID1961, AID1965]; assay type: functional
T1 sequence (P21554 whole entry): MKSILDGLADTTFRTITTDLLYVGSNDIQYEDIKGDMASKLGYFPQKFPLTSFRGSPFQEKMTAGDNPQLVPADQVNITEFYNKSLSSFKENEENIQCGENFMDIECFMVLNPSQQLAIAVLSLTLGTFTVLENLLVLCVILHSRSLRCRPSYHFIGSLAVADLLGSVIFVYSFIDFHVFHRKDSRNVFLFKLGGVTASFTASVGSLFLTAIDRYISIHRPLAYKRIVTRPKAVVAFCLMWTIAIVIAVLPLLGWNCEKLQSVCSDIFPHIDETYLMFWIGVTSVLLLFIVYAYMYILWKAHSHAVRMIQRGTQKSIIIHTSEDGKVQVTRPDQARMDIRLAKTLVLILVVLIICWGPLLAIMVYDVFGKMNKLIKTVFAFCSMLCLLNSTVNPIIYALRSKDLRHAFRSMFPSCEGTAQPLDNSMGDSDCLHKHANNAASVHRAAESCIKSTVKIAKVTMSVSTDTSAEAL

[4] = biological target: G-protein coupled receptor 55 (Homo sapiens, UniProt Q9Y2T6); test: SAR analysis of selective Agonists of GPR55 using an Image-Based Assay - Set 2. [Related pubchem assays (depositor defined):AID1961, AID1965]; assay type: functional
Chain of G-protein coupled receptor 55 (Q9Y2T6 whole entry): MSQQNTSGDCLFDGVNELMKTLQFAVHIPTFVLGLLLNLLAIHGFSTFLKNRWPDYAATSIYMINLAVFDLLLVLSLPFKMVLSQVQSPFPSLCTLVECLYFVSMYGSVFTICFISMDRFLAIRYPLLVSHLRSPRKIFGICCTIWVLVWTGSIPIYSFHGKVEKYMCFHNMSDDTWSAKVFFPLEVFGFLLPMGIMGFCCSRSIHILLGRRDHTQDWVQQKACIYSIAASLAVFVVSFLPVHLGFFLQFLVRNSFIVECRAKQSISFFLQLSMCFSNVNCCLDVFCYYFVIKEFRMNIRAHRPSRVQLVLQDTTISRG

Cannabinoid receptor 2 [5] = biological target: T2, Cannabinoid receptor 2 (Homo sapiens, UniProt P34972); test: SAR analysis of agonists of the Cannabinoid Receptor 2 using an Image-Based Assay - Set 2. [Related pubchem assays (depositor defined):AID1961, AID1965]; assay type: functional
T2 sequence (P34972 whole entry): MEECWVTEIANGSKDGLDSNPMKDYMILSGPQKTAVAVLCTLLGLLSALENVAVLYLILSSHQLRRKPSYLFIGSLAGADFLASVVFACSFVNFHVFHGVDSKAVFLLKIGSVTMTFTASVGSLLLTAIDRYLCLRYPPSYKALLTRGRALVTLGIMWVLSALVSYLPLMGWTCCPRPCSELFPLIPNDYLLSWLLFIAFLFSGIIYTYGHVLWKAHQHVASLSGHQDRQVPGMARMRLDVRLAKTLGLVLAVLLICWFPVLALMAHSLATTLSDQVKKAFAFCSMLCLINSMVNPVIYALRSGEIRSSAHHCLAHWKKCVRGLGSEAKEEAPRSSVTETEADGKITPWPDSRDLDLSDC

Cannabinoid receptor 1 [6] = biological target: T1, Cannabinoid receptor 1; test: SAR analysis of antagonists of the Cannabinoid Receptor 1 using an Image-Based Assay - Set 3. [Related pubchem assays (depositor defined):AID1961, AID1965]; assay type: functional
[7] = biological target: T3, G-protein coupled receptor 35 (Homo sapiens, UniProt Q9HC97); test: SAR analysis of Agonists of the GPR35 Receptor using an Image-Based Assay - Set 3. [Related pubchem assays (depositor defined):AID1961, AID1965]; assay type: functional
T3 sequence (Q9HC97 whole entry): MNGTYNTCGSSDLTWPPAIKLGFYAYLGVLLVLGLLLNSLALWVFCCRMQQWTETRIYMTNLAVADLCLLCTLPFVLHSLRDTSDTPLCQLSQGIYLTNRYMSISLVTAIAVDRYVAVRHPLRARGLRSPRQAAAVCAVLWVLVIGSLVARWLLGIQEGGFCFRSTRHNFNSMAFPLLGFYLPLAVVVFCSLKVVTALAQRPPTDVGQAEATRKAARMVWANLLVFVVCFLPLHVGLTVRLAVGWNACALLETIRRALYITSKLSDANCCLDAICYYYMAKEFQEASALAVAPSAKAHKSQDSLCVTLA

[8] = biological target: T3, G-protein coupled receptor 35; test: SAR analysis of Antagonists of the GPR35 Receptor using an Image-Based Assay - Set 4. [Related pubchem assays (depositor defined):[…]]; assay type: functional
Cannabinoid receptor 2 [9] = biological target: T2, Cannabinoid receptor 2; test: SAR analysis of antagonists of the Cannabinoid Receptor 2 using an Image-Based Assay - Set 2. [Related pubchem assays (depositor defined):AID1961, AID1965]; assay type: functional
[10] = A small molecule screen for inhibitors of the PhoP region in Salmonella typhi (5) using purified and synthesized compounds. [Related pubchem assays (depositor defined):AID1850, AID1864, AID1985, AID2252, AID2384, AID2612, AID2811, AID434995]; assay type: functional
[11] = Luminescence Cell-Based Dose Response HTS to Identify Activators of Luciferase Translation or Activity in H4-C Neuroglioblastoma Cells. [Related pubchem assays: 1829 (Project Summary), 1814 (Primary HTS)]; assay type: functional
[12] = Luminescence Cell-Based Dose HTS Response to Identify Inhibitors of 5'UTR Stem-Loop Driven Prion Protein mRNA Translation in H4-C Neuroglioblastoma Cells. [Related pubchem assays (depositor defined):AID1814, AID1827]; assay type: functional
[13] = Luminescence Cell-Based Dose Response HTS to Identify Inhibitors of Luciferase Translation or Activity in H4-C Neuroglioblastoma Cells. [Related pubchem assays: 1813 (Primary HTS), 1827 (Project Summary)]; assay type: functional
[14] = Luminescence Cell-Based Dose Retest to Confirm Activators of 5'UTR Stem-Loop Driven Alpha-Synuclein mRNA Translation in H4 Neuroglioblastoma Cells. [Related pubchem assays (depositor defined):AID1813, AID1829]; assay type: functional
[15] = Luminescence Cell-Based Dose Response HTS to Identify Activators of 5'UTR Stem-Loop Driven Prion Protein mRNA Translation in H4-C Neuroglioblastoma Cells. [Related pubchem assays: 1829 (Project Summary), 1814 (Primary HTS)]; assay type: functional
[16] = Luminescence Cell-Based Dose Confirmation HTS to Identify Inhibitors of 5'UTR Stem-Loop Driven Alpha-Synuclein mRNA Translation in H4 Neuroglioblastoma Cells. [Related pubchem assays: 1827 (Project Summary), 1813 (Primary HTS)]; assay type: functional

CN1CC=C2C(C#N)=C(N)C(C#N)(C#N)[C@H](c3ccoc3)[C@H]2C1
AC50 (ORF 73): 58.9 µM (active)
AC50 (Keap1/Nrf2): 47.9 µM (active)
EC50 [1]: > 7.94 µM (active)
EC50 (Troponin, cardiac muscle): 8.32 µM (active)
AC50 (Salmon testes DNA): 79 µM (active)

CCNC(=O)NC(=O)C(C)OC(=O)c1cc2c(C)nn(Cc3ccc(Cl)cc3)c2s1 (stereo not given)
EC50 [2]: > 50 µM (inactive)

CCc1sc(C(=O)Nc2cc(S(=O)(=O)N3CCOCC3)ccc2OC)cc1C
EC50 (Cannabinoid receptor 1 [3]): > 32 µM (inactive)
EC50 [4]: > 32 µM (inactive)
EC50 (Cannabinoid receptor 2 [5]): > 32 µM (inactive)
IC50 (Cannabinoid receptor 1 [6]): > 32 µM (inactive)
EC50 [7]: > 32 µM (inactive)
IC50 [8]: > 32 µM (inactive)
IC50 (Cannabinoid receptor 2 [9]): > 32 µM (inactive)

COc1cccc(NC(=O)N2CCCN(Cc3ccccc3F)C2)c1
IC50 [10]: > 150 µM (active)

COc1ccc2c(c1)sc(N)[n+]2Cc1cc(C)cc2cccnc12
EC50 [11]: 10.3 µM (inconclusive)
EC50 [12]: 0.711 µM (active)
EC50 [13]: 10.3 µM (active)
EC50 [14]: 6.36 µM (inconclusive)
EC50 [15]: 0.711 µM (inconclusive)
EC50 [16]: 6.36 µM (active)
